From patent US4745100A, “Stimulation of tear secretion” (Eye Research Institute of Retina Foundation, priority 1986, dated 1988)
Entries after “also recorded” stand apart in the source; their conditions may differ. No end group written: not given here.

Key:
rabbits with dry eyes = assay: Tear film osmolality in dry eye rabbit after topical test drop; format: in vivo; conditions: 10 μl topical drop
Protocol: In vivo examples of the invention were conducted on rabbits with dry eyes. The dry eye disorder is created by surgically closing the duct that carries fluid from the main lacrimal gland to the tear film and surgically removing the nictitans and harderian glands. This leaves intact only the accessory glands that lie on the ocular surface. These rabbits develop increased tear film osmolality soon after the operation, a finding that is understood to be due to decreased tear production, and that is characteristic of dry eye. It is recognized that results of ophthalmologic tests using rabbits has close correlation with humans, and therefore the results carry over to humans.
The effect of topically applied isotonic buffer solution with and without VIP on tear film osmolality was studied in the dry eye rabbit. All test drops were ten μl in volume and were applied in each case six minutes after the instillation of proparacaine, which anesthetizes the surface of the eye and prevents reflex tearing. Tear samples were taken with a micropipette system, in the manner described in the article entitled "Osmolarity of Tear Microvolumes in Keratoconjunctivitis Sicca", by Gilbard et al, Arch Ophthalmol 96:677, 1978. Osmolality was measured by freezing-point depression.
The following protocol was used for each drop tested. Six minutes prior to instillation of the test drop proparacaine was instilled. At zero time a tear sample was taken for measurement of osmolality. At one minute the test drop was instilled. At six and at sixteen minutes, tear samples were taken for osmolality measurements. The procedure for instilling each test drop is that the drop of buffered solution was first instilled in the dry eye and measurements were taken followed by a drop of buffered solution containing VIP. The following test drops were instilled: (1) buffer solution, (2) buffer solution containing 2×10^-8 M VIP, (3) buffer solution, (4) buffer solution containing 2×10^-7 M VIP, (5) buffer solution, (6) buffer solution containing 2×10^-6 M VIP. The results are shown in FIGS. 1A, 1B, and 1C and FIGS. 2A, 2B, and 2C, where FIGS. 1 and 2 each represent the results obtained from the same rabbit.
In separate experiments, the effect of topically applied isotonic buffer solution with or without glucagon or secretin on tear film osmolality was studied in dry eye rabbits. All test drops were ten microliters in volume. Tear osmolality was measured one minute prior to drop instillation and five and fifteen minutes after drop instillation. A drop of buffered solution was first instilled in the dry eye and measurements were taken followed by a drop of buffered solution containing glucagon or secretin, depending on the test.

[1] = additives needed; cited from earlier work
[2] = test system: main (orbital) lacrimal gland; conditions: administered intravenously to rabbits; cited from earlier work
dry eye rabbits = assay: Elimination of tracer Tc99m (sodium pertechnetate) from the tear film of dry eye rabbits; format: in vivo, rabbit; conditions: VIP 2×10^-6 M in 10 μl radioactive buffer
Protocol: In a separate example, dry eye rabbits were studied by examining the rate of elimination of a tracer substance technectium, Tc^99m, as sodium pertechnetate from the tear film. Essentially equivalent counts of Tc^99m were placed in ten microliters of, in some instances, a buffer solution to serve as a control, and in other instances, a buffer solution containing 2×10^-6 M VIP. Radioactivity present in the tear film was measured over contiguous fifteen second periods for thirty minutes with a gamma camera, and the measurements stored on a computer. The following protocol was used: Rabbits were anesthetized with IM rompun and ketamine. At zero time proparacaine was applied. At five minutes, the radioactive buffer with VIP was instilled in the eye. Radioactivity present in the tear film was then recorded as described. After thirty minutes, proparacaine was again instilled in the eye and the procedure repeated with radioactive buffer alone. […] This increased rate of tracer washout is understood to be indicative of increased tear secretion. In a second similar experiment, the effect of VIP was first tested, and then radioactive buffer alone, and then the effect of VIP again.

[3] = test system: rat exorbital lacrimal gland; conditions: cited from earlier work
lacrimal gland = conditions: administered intra-arterially; cited from earlier work

Molecule: glucagon
- effect on tear film osmolality versus buffer solution alone (rabbits with dry eyes; glucagon 2×10^-6, 2×10^-5, 2×10^-4 M, 5 and 15 min after drop, FIG. 6): lowers tear film osmolality more effectively than buffer solution alone; also recorded: dose-dependent decrease in tear film osmolality
- solubility [1]: requires the additives glycerin and lactose to render it soluble

Molecule: secretin
- effect on tear film osmolality versus buffer solution alone (rabbits with dry eyes; secretin 2×10^-7, 2×10^-6, 2×10^-5 M, 5 and 15 min after drop, FIG. 7): lowers tear film osmolality more effectively than buffer solution alone; also recorded: dose-dependent decrease in tear film osmolality

Molecule: vasoactive intestinal peptide (HSDAVFTDNYTRLRKQMAVKKYLNSILN; ends and bridges not checked; UniProt P01282 125-152, looked up) [VIP]
- main (orbital) lacrimal gland secretion [2]: can stimulate main (orbital) lacrimal gland secretion
- slope of the elimination curve of Tc99m from tear film, first 15 minutes (dry eye rabbits; topical, dry eye rabbit, placebo -0.82, FIG. 4): -1.65
- slope of the elimination curves versus radioactive buffer alone, second experiment (dry eye rabbits; two VIP tests, FIG. 5): substantially steeper than for radioactive buffer alone
- protein secretion in vitro [3]: stimulate protein secretion in vitro
- effect on tear film osmolality versus placebo, same experiment as CCK (rabbits with dry eyes; VIP 2×10^-6 M, FIGS. 3A, 3B): decreased tear film osmolality more effectively than a placebo in one of two trials
- effect on tear film osmolality versus buffer solution alone (rabbits with dry eyes; VIP 2×10^-8, 2×10^-7, 2×10^-6 M, samples at 6 and 16 min, FIGS. 1 and 2): lowers the tear film osmolality more effectively than buffer solution alone; also recorded: dose-dependent decrease in tear film osmolality
- lacrimal gland secretion (lacrimal gland): stimulate lacrimal gland secretion

B1: Cholecystokinin (peptide, UniProt P06307 21-115, looked up)
Cholecystokinin: QPVPPADPAGSGLQRAEEAPRRQLRVSQRTDGESRAHLGALLARYIQQARKAPSGRMSIVKNLQNLDPSHRISDRDYMGWMDFGRRSAEEYEYPS
modifications: Cholecystokinin
notes: gastrointestinal hormone tested topically as comparison
- effect on tear osmolality versus placebo (rabbits with dry eyes; CCK 2×10^-4 M, FIG. 3B): did not lower tear osmolality more effectively than a placebo
- lacrimal gland secretion (lacrimal gland): stimulate lacrimal gland secretion
